Reference: ChEMBL document CHEMBL1201862, “PubChem BioAssay data set” (2004)
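Cultured in 96-well plates, cells were exposed to test compound for 48 hours across five concentrations. GI50 is the concentration that inhibits growth by half.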 The source made the active and inactive calls. No stated cut-off is given here; in the data, active = GI50 up to about 1.1 µM and inactive = higher.

Assays:
Assay in all cases: NCI-60 cell line screen, 48 h
KM12 = test system: KM12
SNB-19 = test system: SNB-19
LOX IMVI = test system: LOX IMVI
SK-MEL-2 = test system: SK-MEL-2
HOP-62 = test system: HOP-62
OVCAR-3 = test system: OVCAR-3
SK-MEL-28 = test system: SK-MEL-28
T47D = test system: T47D
NCI-H226 = test system: NCI-H226
HCC 2998 = test system: HCC 2998
COLO 205 = test system: COLO 205
CAKI-1 = test system: CAKI-1
MDA-MB-435 = test system: MDA-MB-435
M14 = test system: M14
A549 = test system: A549
SK-OV-3 = test system: SK-OV-3
PC-3 = test system: PC-3
IGROV-1 = test system: IGROV-1
U-251 = test system: U-251
HOP-92 = test system: HOP-92

SMILES | GI50 (KM12) | GI50 (SNB-19) | GI50 (LOX IMVI) | GI50 (SK-MEL-2) | GI50 (HOP-62) | GI50 (OVCAR-3) | GI50 (SK-MEL-28) | GI50 (T47D) | GI50 (NCI-H226) | GI50 (HCC 2998) | GI50 (COLO 205) | GI50 (CAKI-1) | GI50 (MDA-MB-435) | GI50 (M14) | GI50 (A549) | GI50 (SK-OV-3) | GI50 (PC-3) | GI50 (IGROV-1) | GI50 (U-251) | GI50 (HOP-92)
O=C1/C(=C/c2ccc([N+](=O)[O-])cc2)C(=O)N(c2ccccc2)C1c1ccccc1 (stereo unspecified) | > 10 µM (inactive) | > 10 µM (inactive) | > 10 µM (inactive) | > 10 µM (inactive) | > 10 µM (inactive) | > 10 µM (inactive) | > 10 µM (inactive) | > 10 µM (inactive) | > 10 µM (inactive) | > 10 µM (inactive) | > 10 µM (inactive) | > 10 µM (inactive) | > 10 µM (inactive) | > 10 µM (inactive) | > 10 µM (inactive) | > 10 µM (inactive) | > 10 µM (inactive) | > 10 µM (inactive) | > 10 µM (inactive) | 
COc1cc2c(cc1OC)C(=O)/C(=C/c1cc(C)cc(C)c1)C2 | < 0.0203 µM (active) | 1.1 µM (active) | 0.0807 µM (active) | 0.184 µM (active) | 0.127 µM (active) | 0.0324 µM (active) | 40.7 µM (inactive) | 0.883 µM (active) | 0.172 µM (active) | 0.0601 µM (active) | 0.0735 µM (active) |  | < 0.0146 µM (active) | 0.148 µM (active) | 0.0713 µM (active) | 0.308 µM (active) | 0.0667 µM (active) | 0.0908 µM (active) | 0.122 µM (active) | 3.29 µM (inactive)
CCCN(C(=O)c1ccccc1)C(C#N)c1ccc(C(C#N)N(CCC)C(=O)c2ccccc2)cc1 (stereo unspecified) | > 100 µM (inactive) | 26.1 µM (inactive) | > 100 µM (inactive) | > 100 µM (inactive) | 27.1 µM (inactive) | > 100 µM (inactive) |  | 11.2 µM (inactive) | 20 µM (inactive) | > 100 µM (inactive) | > 100 µM (inactive) | > 100 µM (inactive) | > 100 µM (inactive) | > 100 µM (inactive) | 56.6 µM (inactive) | 22 µM (inactive) | 68.9 µM (inactive) | 32.4 µM (inactive) | 40 µM (inactive) | 16.3 µM (inactive)
OC1COC2CC(Nc3ccccn3)OC12 (stereo unspecified) | > 100 µM (inactive) | > 100 µM (inactive) | > 100 µM (inactive) | > 100 µM (inactive) | > 100 µM (inactive) | > 100 µM (inactive) | > 100 µM (inactive) | > 100 µM (inactive) | > 100 µM (inactive) | > 100 µM (inactive) | > 100 µM (inactive) | > 100 µM (inactive) | > 100 µM (inactive) | > 100 µM (inactive) | > 100 µM (inactive) | > 100 µM (inactive) | > 100 µM (inactive) | > 100 µM (inactive) | > 100 µM (inactive) | 
COc1cc2nc3c(=C(C#N)C#N)c4ccccc4n3c(=O)c2cc1OC | > 100 µM (inactive) | > 100 µM (inactive) | > 100 µM (inactive) | > 100 µM (inactive) | > 100 µM (inactive) | > 100 µM (inactive) |  | > 100 µM (inactive) | > 100 µM (inactive) | > 100 µM (inactive) | > 100 µM (inactive) | > 100 µM (inactive) | > 100 µM (inactive) | > 100 µM (inactive) | > 100 µM (inactive) | > 100 µM (inactive) | > 100 µM (inactive) | > 100 µM (inactive) | > 100 µM (inactive) | 36.5 µM (inactive)
O=S(=O)(O)c1ccc2cccc(/N=N\c3c(O)ccc4ccccc34)c2c1 | > 100 µM (inactive) | > 100 µM (inactive) |  | > 100 µM (inactive) | > 100 µM (inactive) | > 100 µM (inactive) |  | > 100 µM (inactive) | > 100 µM (inactive) | > 100 µM (inactive) | > 100 µM (inactive) | > 100 µM (inactive) | > 100 µM (inactive) | > 100 µM (inactive) | > 100 µM (inactive) | > 100 µM (inactive) | > 100 µM (inactive) | > 100 µM (inactive) | > 100 µM (inactive) | > 100 µM (inactive)
NC(Cc1ccc(S(=O)(=O)O)cc1)C(=O)NC(CCCCNC(=O)NCCCCC(NC(=O)C(N)Cc1ccc(S(=O)(=O)O)cc1)C(=O)NC(Cc1ccc(S(=O)(=O)O)cc1)C(=O)O)C(=O)NC(Cc1ccc(S(=O)(=O)O)cc1)C(=O)O (stereo unspecified) | > 100 µM (inactive) |  | > 100 µM (inactive) | > 100 µM (inactive) | > 100 µM (inactive) | > 100 µM (inactive) | > 100 µM (inactive) | > 100 µM (inactive) | > 100 µM (inactive) | > 100 µM (inactive) | > 100 µM (inactive) | > 100 µM (inactive) | > 100 µM (inactive) | > 100 µM (inactive) | > 100 µM (inactive) | > 100 µM (inactive) | > 100 µM (inactive) | > 100 µM (inactive) | > 100 µM (inactive) | 
